Data on 15 molecules can be found in ChEMBL document CHEMBL5724914, “Linking interpersonal differences in gut microbiota composition and drug biotransformation activity” (2024).

The nature of data set [1]: The drug is tested on WLS-240 corresponding to human gut metagenome with ENA study accession number: PRJEB37062 and ENA sample accession number: ERS12561773 for biotransformation under anaerobic condition. The drug concentrations were measured over 9 timepoints collected between 0 and 24 hours of incubation by liquid-chromatography-coupled mass spectrometry (LC–MS). Particulars: 2 µM.

The conditions of data set [2]: human gut metagenome, 24 h, 2 µM.
Data set [3] in a line: The drug is tested on WLS-069 corresponding to human gut metagenome with ENA study accession number: PRJEB37062 and ENA sample accession number: ERS12561748 for biotransformation under anaerobic condition. The drug concentrations were measured over 9 timepoints collected between 0 and 24 hours of incubation by liquid-chromatography-coupled mass spectrometry (LC–MS). The following applies: 2 µM.

Data set [4] is described as follows: The drug is tested on WLS-006 corresponding to human gut metagenome with ENA study accession number: PRJEB37062 and ENA sample accession number: ERS12561741 for biotransformation under anaerobic condition. The drug concentrations were measured over 9 timepoints collected between 0 and 24 hours of incubation by liquid-chromatography-coupled mass spectrometry (LC–MS). Particulars: 2 µM.

The conditions of data set [5]: human gut metagenome, 24 h, 2 µM. The source holds these as a separate data set.
Data set [6] in a line: The drug is tested on WLS-073 corresponding to human gut metagenome with ENA study accession number: PRJEB37062 and ENA sample accession number: ERS12561749 for biotransformation under anaerobic condition. The drug concentrations were measured over 9 timepoints collected between 0 and 24 hours of incubation by liquid-chromatography-coupled mass spectrometry (LC–MS). Particulars: 2 µM.

The conditions of data set [7]: human gut metagenome, 24 h, 2 µM. This is another data set of the same source.
The conditions of data set [8]: human gut metagenome, 24 h, 2 µM. This is another data set of the same source.
The nature of data set [9]: The drug is tested on WLS-170 corresponding to human gut metagenome with ENA study accession number: PRJEB37062 and ENA sample accession number: ERS12561762 for biotransformation under anaerobic condition. The drug concentrations were measured over 9 timepoints collected between 0 and 24 hours of incubation by liquid-chromatography-coupled mass spectrometry (LC–MS). The following applies: 2 µM.
Note: call rule not given here.

Take `CCOC(=O)[C@H](CCc1ccccc1)N[C@@H](C)C(=O)N1[C@H](C(=O)O)C[C@@H]2CCC[C@@H]21`: the “Bacterial Biotransformation” value in data set [1] was “Compound metabolized”; in data set [2], “Compound NOT metabolized”; in data set [3], “Compound metabolized”; in data set [4], “Compound metabolized”; in [5], “Compound metabolized”; in data set [6], “Compound metabolized”. Moreover, the “Bacterial Biotransformation” value in data set [7], in data set [8] and in data set [9] was “Compound metabolized” each time.
`CCN(CC)CCNC(C(=O)OCCC(C)C)c1ccccc1.Cl.Cl` (configuration not stated): the “Bacterial Biotransformation” value in data set [1] is reported as “Compound metabolized”; in data set [2], “Compound NOT metabolized”; in data set [3] it was “Compound metabolized”; in data set [4], “Compound metabolized”; in [5], “Compound NOT metabolized”; in data set [6], “Compound metabolized”. Further, the “Bacterial Biotransformation” value in data set [7], in [8] and in [9] was “Compound metabolized” each time.
As for `CCCC(=O)Nc1ccc(OCC(O)CNC(C)C)c(C(C)=O)c1` (configuration not stated) [ACEBUTOLOL], the “Bacterial Biotransformation” value in [1] is listed as “Compound metabolized”; in data set [2] it was “Compound metabolized”; in data set [3], “Compound metabolized”; in [4], “Compound NOT metabolized”; in data set [5] it was “Compound metabolized”; in data set [6], “Compound NOT metabolized”. The “Bacterial Biotransformation” value in [7], in [8] and in data set [9] was “Compound metabolized” each time.
In the case of `C=CCc1ccccc1OCC(O)CNC(C)C` (configuration not stated) [ALPRENOLOL], the “Bacterial Biotransformation” value was “Compound metabolized” in [1]; “Compound NOT metabolized” in data set [2]; “Compound NOT metabolized” in data set [3]; “Compound NOT metabolized” in data set [4]; “Compound NOT metabolized” in [5]; “Compound NOT metabolized” in data set [6]. The “Bacterial Biotransformation” value in [7] is listed as “Compound metabolized”; in data set [8], “Compound NOT metabolized”; in data set [9], “Compound metabolized”.
On to `CCC1(c2ccc(N)cc2)CCC(=O)NC1=O` (configuration not stated) [AMINOGLUTETHIMIDE], for which the “Bacterial Biotransformation” value in [1], in data set [2], in data set [3], in data set [4], in data set [5] and in data set [6] was “Compound NOT metabolized” throughout. Further, the “Bacterial Biotransformation” value in [7], in data set [8] and in data set [9] was “Compound NOT metabolized” each time.
In the case of `CN1CCc2cccc3c2[C@H]1Cc1ccc(O)c(O)c1-3` [APOMORPHINE], the “Bacterial Biotransformation” value in data set [1], in [2], in [3], in [4], in [5] and in data set [6] was “Compound NOT metabolized” throughout. Further, the “Bacterial Biotransformation” value in data set [7], in [8] and in data set [9] was “Compound NOT metabolized” throughout.
Consider `C[C@@H]1CC[C@H]2[C@@H](C)C(=O)O[C@@H]3O[C@@]4(C)CC[C@@H]1[C@]32OO4` [ARTEMISININ], for which the “Bacterial Biotransformation” value in data set [1], in data set [2], in data set [3], in data set [4], in data set [6] and in data set [8] was “Compound metabolized” each time. Also, the “Bacterial Biotransformation” value in data set [9] is reported as “Compound metabolized”.
Turning to `CC(C)c1c(C(=O)Nc2ccccc2)c(-c2ccccc2)c(-c2ccc(F)cc2)n1CC[C@@H](O)C[C@@H](O)CC(=O)O` [ATORVASTATIN], the “Bacterial Biotransformation” value in data set [1] is “Compound metabolized”; in data set [2], “Compound NOT metabolized”; in [3], “Compound metabolized”; in data set [4], “Compound metabolized”; in data set [5] it was “Compound metabolized”; in data set [6], “Compound NOT metabolized”. In addition, the “Bacterial Biotransformation” value in data set [7], in data set [8] and in [9] was “Compound metabolized” in each case.
Turning to `CCOC(=O)[C@H](CCc1ccccc1)N[C@H]1CCc2ccccc2N(CC(=O)O)C1=O` [BENAZEPRIL], the “Bacterial Biotransformation” value in [1], in data set [2], in data set [3], in data set [4], in [5] and in data set [6] was “Compound metabolized” throughout. In addition, the “Bacterial Biotransformation” value in [7], in [8] and in [9] was “Compound metabolized” throughout.
As for `NS(=O)(=O)c1cc2c(cc1Cl)N=C(CSCc1ccccc1)NS2(=O)=O` [BENZTHIAZIDE], the “Bacterial Biotransformation” value in data set [1], in data set [2], in [3], in data set [4], in data set [5] and in data set [6] was “Compound NOT metabolized” in each case. Moreover, the “Bacterial Biotransformation” value in [7], in data set [8] and in data set [9] was “Compound NOT metabolized” each time.
Take `OC(CCN1CCCCC1)(c1ccccc1)C1CC2C=CC1C2` (configuration not stated) [BIPERIDEN]: the “Bacterial Biotransformation” value in data set [1] is “Compound NOT metabolized”; in data set [2] it was “Compound NOT metabolized”; in data set [3], “Compound NOT metabolized”; in [4], “Compound metabolized”; in data set [5], “Compound NOT metabolized”; in [6], “Compound NOT metabolized”. Besides, the entries for the “Bacterial Biotransformation” value in data set [7], in data set [8] and in [9] were “Compound NOT metabolized”, “Compound NOT metabolized” and “Compound metabolized”, respectively.
Consider `C#C[C@]1(O)CC[C@H]2[C@@H]3CCC4=Cc5oncc5C[C@]4(C)[C@H]3CC[C@@]21C` [DANAZOL], for which the “Bacterial Biotransformation” value in data set [1] is given as “Compound metabolized”; in data set [2] it was “Compound metabolized”; in [3] it was “Compound metabolized”; in data set [4] it was “Compound metabolized”; in [6], “Compound metabolized”; in data set [7], “Compound NOT metabolized”.
For `COc1c2occc2cc2ccc(=O)oc12` [METHOXSALEN], the “Bacterial Biotransformation” value in data set [1], in data set [2], in [3], in data set [4], in [5] and in data set [7] was “Compound metabolized” each time. The “Bacterial Biotransformation” value in data set [8] and in data set [9] was “Compound metabolized” each time.
As for `Cc1nc2n(c(=O)c1CCN1CCC(c3noc4cc(F)ccc34)CC1)CCCC2` [RISPERIDONE], the “Bacterial Biotransformation” value in [1], in [2], in data set [3], in data set [4], in data set [5] and in data set [7] was “Compound metabolized” throughout. Besides, the “Bacterial Biotransformation” value in data set [8] and in [9] was “Compound metabolized” in each case.
For `CN(C)CCc1c[nH]c2ccc(Cn3cncn3)cc12.O=C(O)c1ccccc1` [RIZATRIPTAN BENZOATE], the “Bacterial Biotransformation” value in data set [1], in data set [2], in data set [3], in data set [4], in [5] and in [6] was “Compound NOT metabolized” in each case. The “Bacterial Biotransformation” value in data set [7] and in data set [8] was “Compound NOT metabolized” in each case.
